Experimental data taken from paper PMC9939319 (Acta Pharmaceutica Sinica. B, 2022).

Target: TRPA1 (Homo sapiens, UniProt O75762)
Test: calcium flux in TRPA1-overexpressing HEK-293 cells
Type: cell-based

TRPA1, sequence (O75762 whole entry): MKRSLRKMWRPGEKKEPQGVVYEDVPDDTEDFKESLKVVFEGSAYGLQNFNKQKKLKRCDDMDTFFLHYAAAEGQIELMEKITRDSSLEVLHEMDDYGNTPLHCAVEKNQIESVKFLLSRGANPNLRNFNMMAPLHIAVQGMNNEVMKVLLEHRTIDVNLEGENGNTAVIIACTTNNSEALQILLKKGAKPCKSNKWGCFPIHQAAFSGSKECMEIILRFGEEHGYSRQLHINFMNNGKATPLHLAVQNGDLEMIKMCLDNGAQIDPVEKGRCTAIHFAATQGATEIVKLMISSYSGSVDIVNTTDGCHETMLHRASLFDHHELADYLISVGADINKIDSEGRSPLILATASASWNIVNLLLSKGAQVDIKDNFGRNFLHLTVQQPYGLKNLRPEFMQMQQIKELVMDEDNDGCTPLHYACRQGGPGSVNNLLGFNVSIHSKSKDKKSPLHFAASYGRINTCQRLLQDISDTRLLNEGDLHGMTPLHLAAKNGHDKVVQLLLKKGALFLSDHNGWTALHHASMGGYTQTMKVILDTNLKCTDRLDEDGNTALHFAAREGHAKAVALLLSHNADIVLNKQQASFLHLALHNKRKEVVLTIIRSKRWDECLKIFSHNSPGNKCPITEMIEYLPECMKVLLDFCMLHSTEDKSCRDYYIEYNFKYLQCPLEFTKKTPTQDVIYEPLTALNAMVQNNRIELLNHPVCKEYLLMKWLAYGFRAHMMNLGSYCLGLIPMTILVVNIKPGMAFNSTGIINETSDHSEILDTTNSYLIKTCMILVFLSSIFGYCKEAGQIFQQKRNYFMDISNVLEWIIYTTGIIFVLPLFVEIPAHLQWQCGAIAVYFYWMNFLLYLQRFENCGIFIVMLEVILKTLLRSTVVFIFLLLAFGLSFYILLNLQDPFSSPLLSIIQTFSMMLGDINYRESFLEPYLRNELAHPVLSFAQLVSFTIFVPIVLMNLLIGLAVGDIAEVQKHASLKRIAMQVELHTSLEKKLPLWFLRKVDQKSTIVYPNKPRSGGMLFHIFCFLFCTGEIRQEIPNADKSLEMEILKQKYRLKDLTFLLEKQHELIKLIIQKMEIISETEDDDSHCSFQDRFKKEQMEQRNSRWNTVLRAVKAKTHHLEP

For `CC(C)(C)c1ccc(O)c(C(C)(C)C)c1` [2,4-DTBP], the EC50 was 225 µM.
